# Experimental data reported in ChEMBL document CHEMBL4765419, “Design, synthesis and bioactivity evaluation of novel arylalkene-amide derivatives as dual-target antifungal inhibitors” (Eur J Med Chem, 2020).
# The source made the active and inactive calls. No cut-off for these calls is given here.
# Tests used:
# [1] = test system: Pichia kudriavzevii; assay: Antifungal activity against Candida krusei assessed as inhibition of microbial growth by two fold broth microdilution method; assay type: functional
# [2] = test system: Candida albicans; assay: Antifungal activity against Candida albicans ATCC SC5314 assessed as decrease in fungal cell density by polarizing microscopy; assay type: functional, organism-based
# [3] = test system: Candida albicans SC5314; assay: Inhibition of CYP51 in Candida albicans ATCC SC5314 assessed as eburicol level at 4 ug/ml incubated for 16 hrs by LC/MS analysis (reference value: 4.67 %); parameters: scale not given: the % may be the effect or the level left; details: dose 4.0 µg/ml
# [4] = test system: Candida albicans SC5314; assay: Inhibition of CYP51 in Candida albicans ATCC SC5314 assessed as ergosterol level at 4 ug/ml incubated for 16 hrs by LC/MS analysis (reference value: 79.43 %); parameters: scale not given: the % may be the effect or the level left; details: dose 4.0 µg/ml
# [5] = test system: Candida albicans; assay: Antifungal activity against fluconazole-resistant Candida albicans 17# assessed as inhibition of microbial growth by two fold broth microdilution method; assay type: functional
# [6] = test system: Nakaseomyces glabratus; assay: Antifungal activity against Candida glabrata assessed as inhibition of microbial growth by two fold broth microdilution method; assay type: functional
# [7] = test system: Candida albicans SC5314; assay: Inhibition of CYP51 in Candida albicans ATCC SC5314 assessed as squalene level at 4 ug/ml incubated for 16 hrs by LC/MS analysis (reference value: 2.25 %); parameters: scale not given: the % may be the effect or the level left; details: dose 4.0 µg/ml
# [8] = test system: Candida tropicalis; assay: Antifungal activity against Candida tropicalis assessed as inhibition of microbial growth by two fold broth microdilution method; assay type: functional
# [9] = test system: Candida albicans SC5314; assay: Inhibition of CYP51 in Candida albicans ATCC SC5314 assessed as lanosterol level at 4 ug/ml incubated for 16 hrs by LC/MS analysis (reference value: 6.62 %); parameters: scale not given: the % may be the effect or the level left; details: dose 4.0 µg/ml
# [10] = test system: Candida albicans; assay: Antifungal activity against fluconazole-resistant Candida albicans CaR assessed as inhibition of microbial growth by two fold broth microdilution method; assay type: functional
# [11] = test system: Candida albicans; assay: Antifungal activity against fluconazole-resistant Candida albicans 901 assessed as inhibition of microbial growth by two fold broth microdilution method; assay type: functional
# [12] = test system: Candida albicans; assay: Antifungal activity against fluconazole-resistant Candida albicans 904 assessed as inhibition of microbial growth by two fold broth microdilution method; assay type: functional
# [13] = test system: Aspergillus fumigatus; assay: Antifungal activity against Aspergillus fumigatus assessed as inhibition of microbial growth by two fold broth microdilution method; assay type: functional
# [14] = test system: Candida albicans; assay: Antifungal activity against Candida albicans assessed as inhibition of microbial growth by two fold broth microdilution method; assay type: functional
# [15] = test system: Candida albicans SC5314; assay: Inhibition of CYP51 in Candida albicans ATCC SC5314 assessed as unidentified sterol level at 4 ug/ml incubated for 16 hrs by LC/MS analysis (reference value: 7.03 %); parameters: scale not given: the % may be the effect or the level left; details: dose 4.0 µg/ml
# [16] = test system: Candida albicans; assay: Antifungal activity against fluconazole-resistant Candida albicans 632 assessed as inhibition of microbial growth by two fold broth microdilution method; assay type: functional
structure (smiles),measurement,setting,value
OC(Cn1cncn1)(Cn1cncn1)c1ccc(F)cc1F [FLUCONAZOLE],MIC,[1],1 µg/mL
same,Activity,[2],Active
same,Activity,[3],65.5%
same,Activity,[4],7.62%
same,MIC,[5],> 16 µg/mL
same,MIC,[6],0.5 µg/mL
same,Activity,[7],3.68%
same,MIC,[8],0.5 µg/mL
same,Activity,[9],13.9%
same,MIC,[10],> 16 µg/mL
same,MIC,[11],> 16 µg/mL
same,MIC,[12],> 16 µg/mL
same,MIC,[13],> 16 µg/mL
same,MIC,[14],0.25 µg/mL
same,Activity,[15],9.26%
same,MIC,[16],> 16 µg/mL
